In series [1] the test system is SUDV Boniface and MARV Ci67. Format: cell-based, Sudan virus, Marburg virus.
For series [2] the following is noted: human plasma maximum concentration; ref [1]–[19]; cited from earlier work.
For series [3] the following is noted: ref PubChem compound summaries; cited from earlier work.
Series [4] has as its system SUDV Boniface. Description: microbe, parasite or virus in culture. It counts as cell-based, Sudan virus. Conditions: for EC50: Sudan ebolavirus, HeLa, read-out: Activity against SUDV EC50.
A short description of series [5]: in vitro. Conditions: human.
The subject of series [6] is MARV Ci67. Description: organism not typed. Format: cell-based, Marburg virus. Conditions: HeLa, read-out: Activity against MARV EC50.
For series [7], the system named is SUDV Boniface. It counts as cell-based, Sudan virus.
For series [8], the system named is MARV Ci67. Format: cell-based, Marburg virus.
A short description of series [9]: in vitro. Conditions: human. This is another data set of the same source.
The conditions of series [10]: in vivo; cited from earlier work.
Another series concerns HCV 1b replicon. Conditions: read-out: EC50 against HCV 1b replicon (early studies); cited from earlier work.
The next series relates to dengue virus-2 (DENV-2). Conditions: read-out: EC50 against dengue virus-2 (DENV-2); cited from earlier work.
Another series deals with yellow fever virus (YFV). Conditions: read-out: EC50 against yellow fever virus (YFV); cited from earlier work.
A further series deals with West Niles virus (WNV). Conditions: read-out: EC50 against West Niles virus (WNV); cited from earlier work.

Entries after “also recorded” stand apart in the source; their conditions may differ. Where a name gives a salt, the structure may show the parent alone.

Results on 20 compounds are retold here after article PMC9950143 (Scientific Reports, 2023).

Take `CC(=O)Nc1ccc(O)cc1` [Acetaminophen]: in series [1], the “Drug-drug interaction? (RDV potency)” value is “No” and the “effect on RDV potency in combination studies” value (from here on “effect on RDV potency”) was “minimal effect on RDV potency”. For the same compound, in the series on HeLa cells (human), the “RDV CC50 when combination” value is above 2.5 µM and the “RDV CC50 when in combination” value is on record as above 2.5 µM. Moreover, the Cmax in series [2] was 11400 [1] ng/mL. Also, in series [3], the “Plasma Protein Binding” value is reported as 10–25%.
For the compound `CCN(CC)Cc1cc(Nc2ccnc3cc(Cl)ccc23)ccc1O` [Amodiaquine, Amodiaquine hydrochloride dihydrate], the “fold lowering of RDV EC50 against SUDV” value in the series with SUDV Boniface [4] is above 5 folds. Also, the “Drug-drug interaction? (RDV potency)” value in [1] is “Enhanced^5 for SUDV”. In the series on HeLa cells (human), the “RDV CC50 when combination” value is given as above 2.5 µM and the “RDV CC50 when in combination” value was above 2.5 µM. In addition, in series [2], the Cmax was 32.3 [2] ng/mL.
For the compound `CO[C@H]1O[C@@H]2O[C@@]3(C)CC[C@H]4[C@H](C)CC[C@@H]([C@H]1C)[C@@]24OO3` [Artemether], in [1], the “Drug-drug interaction? (RDV potency)” value is listed as “No” and the “effect on RDV potency” value is on record as “minimal effect on RDV potency”. In addition, in the series on HeLa cells (human), the “RDV CC50 when combination” value is above 2.5 µM and the “RDV CC50 when in combination” value is above 2.5 µM. For the same compound, the Cmax in series [2] is 198 [3] ng/mL. Also, the “Plasma Protein Binding” value in series [3] was 95.4%.
On to `C[C@H]1[C@H](OC(=O)CCC(=O)O)O[C@@H]2O[C@@]3(C)CC[C@H]4[C@H](C)CC[C@@H]1[C@@]24OO3` [Artesunate], for which, in series [1], the “Drug-drug interaction? (RDV potency)” value is on record as “No”. The “RDV CC50 when combination” value in the series on HeLa cells (human) is on record as above 2.5 µM. Besides, the Cmax in [2] was 3260 [4] ng/mL. In addition, in [3], the “Plasma Protein Binding” value is listed as 93%.
Regarding `O=C1C(O)=C([C@H]2CC[C@H](c3ccc(Cl)cc3)CC2)C(=O)c2ccccc21` [Atovaquone], in series [1], the “Drug-drug interaction? (RDV potency)” value is “No” and the “effect on RDV potency” value is “minimal effect on RDV potency”. For the same compound, the “cytotoxicity of combination with RDV” value with HeLa cells is reported as “Enhanced cytotoxicity”. Moreover, the Cmax in series [2] was 8300 [5, 6] ng/mL. In series [3], the “Plasma Protein Binding” value was 99.9%. In the series “in vitro [5]” (CC50 when tested alone), this compound had a CC50 of 8 to 17 µM.
As for `CO/N=C(\C(=O)N[C@@H]1C(=O)N2C(C(=O)O)=C(CSc3nc(=O)c(=O)[nH]n3C)CS[C@H]12)c1csc(N)n1` [Ceftriaxone, ceftriaxone disodium salt hemi(heptahydrate)], in [1], the “Drug-drug interaction? (RDV potency)” value was “Not antagonistic”. Moreover, in the series with HeLa cells (human), the “CC50 (SUDV assay)” value was found to be 20.9 ± 10.1 µM, the “RDV CC50 when combination” value is recorded as above 2.5 µM and the “RDV CC50 when in combination” value is given as above 2.5 µM. Moreover, the Cmax in series [2] is 291000 [7] ng/mL.
`O=C(O)c1cn(C2CC2)c2cc(N3CCNCC3)c(F)cc2c1=O` [Ciprofloxacin]: the “Drug-drug interaction? (RDV potency)” value in [1] is “Enhanced for SUDV”.
Turning to `CN1C(=O)CN=C(c2ccccc2)c2cc(Cl)ccc21` [Diazepam], in [1], the “Drug-drug interaction? (RDV potency)” value is “No” and the “effect on RDV potency” value was “minimal effect on RDV potency”.
Consider `O=C1Nc2ccc(Cl)cc2[C@@](C#CC2CC2)(C(F)(F)F)O1` [Efavirenz], for which the EC50 in the series on SUDV Boniface [4] was found to be 2.24 ± 0.57 µM; in the series with MARV Ci67 [6], 19.8 ± 0.1 µM. Moreover, the “Drug-drug interaction? (RDV potency)” value in series [1] is listed as “Not antagonistic”. Also, in the series on HeLa cells, the “cytotoxicity of combination with RDV” value is “Enhanced cytotoxicity”. Further, the Cmax in series [2] is 12900 [14] ng/mL. Besides, the “Plasma Protein Binding” value in [3] is reported as 99.5–99.75%. Also, in the series “in vitro [5]”, the CC50 at 48 h is 15.1 ± 4.1 µM. For the same compound, the CC50 in the series “in vitro [5]” (CC50 (SUDV assay)) is 20.7 ± 10.1 µM; in the series “in vitro [5]” (CC50 when tested alone), 14 to 28 µM.
`NC(=O)c1nc(F)c[nH]c1=O` [Favipiravir, 6-fluoro-3-oxo-3,4-dihydropyrazine-2-carboxamide]: the “maximum fold reduction of favipiravir EC50 in combination with RDV” value with SUDV Boniface [7] is listed as at least 21 fold; in the series with MARV Ci67 [8], at least 4.8 fold. The same compound registered a CC50 in the series “in vitro [9]” above 750 µM. For the same compound, the “decrease of plasma median concentration on Day 4” value in series [10] was ~ 50%.
As for `N#C[C@@]1(c2ccc3c(N)ncnn23)O[C@H](CO)[C@@H](O)[C@H]1O` [GS-441524], the concentration for a half-maximal effect (EC50) was 3.1 µM with HCV 1b replicon, 9.46 µM in the series with dengue virus-2 (DENV-2), 11 µM in the series with yellow fever virus (YFV) and above 30 µM in the series on West Niles virus (WNV).
With `Nc1ccn([C@@H]2CS[C@H](CO)O2)c(=O)n1` [Lamivudine], in [1], the “Drug-drug interaction? (RDV potency)” value was “No” and the “effect on RDV potency” value is listed as “minimal effect on RDV potency”. Also, in the series on HeLa cells (human), the “RDV CC50 when combination” value is on record as above 2.5 µM and the “RDV CC50 when in combination” value is above 2.5 µM. The Cmax in series [2] is 2600 [15] ng/mL. Further, the “Plasma Protein Binding” value in series [3] is on record as below 36%.
`Cc1cccc(C)c1OCC(=O)N[C@@H](Cc1ccccc1)[C@@H](O)C[C@H](Cc1ccccc1)NC(=O)[C@H](C(C)C)N1CCCNC1=O` [Lopinavir]: the results for the concentration giving a half-maximal response (EC50) in the series on SUDV Boniface [4] and with MARV Ci67 [6] were 2.32 ± 0.58 µM and above 100 µM, respectively. The “Drug-drug interaction? (RDV potency)” value in [1] is on record as “No for MARV; also recorded: Not antagonistic”. In the series on HeLa cells (human), the “RDV CC50 when combination” value was above 2.5 µM. In addition, the “RDV CC50 when in combination” value with HeLa cells (human) is given as above 2.5 µM. The “Plasma Protein Binding” value in [3] is recorded as above 98%. For the same compound, in “in vitro [5]”, the CC50 at 48 h is above 100 µM. This compound also displayed a CC50 in “in vitro [5]” (CC50 (SUDV assay)) of 34.1 ± 0.9 µM.
With `CCCCN(CCCC)CC(O)c1cc(Cl)cc2c1-c1ccc(Cl)cc1/C2=C/c1ccc(Cl)cc1` (stereo not drawn) [Lumefantrine], the EC50 in the series on SUDV Boniface [4] was 9.6 ± 0.52 µM. Also, the EC50 in the series on MARV Ci67 [6] worked out at 16.6 ± 7.3 µM. In addition, the “Drug-drug interaction? (RDV potency)” value in series [1] is recorded as “Not antagonistic”. In the series on HeLa cells (human), the “RDV CC50 when combination” value was above 2.5 µM and the “RDV CC50 when in combination” value is above 2.5 µM. In addition, the Cmax in series [2] is 6300 [10] ng/mL. Moreover, in “in vitro [5]”, the CC50 at 48 h turned out to be 37.3 ± 0.9 µM. The CC50 in the series “in vitro [5]” (CC50 (SUDV assay)) turned out to be 40 ± 1.2 µM.
As to `Cc1ncc([N+](=O)[O-])n1CCO` [Metronidazole], in series [1], the “Drug-drug interaction? (RDV potency)” value is reported as “No” and the “effect on RDV potency” value is reported as “minimal effect on RDV potency”. Moreover, in the series with HeLa cells (human), the “RDV CC50 when combination” value is above 2.5 µM and the “RDV CC50 when in combination” value is above 2.5 µM. Also, the Cmax in [2] was 5100 [11] ng/mL. The “Plasma Protein Binding” value in series [3] is 20%.
Turning to `COc1ccc2[nH]c([S+]([O-])Cc3ncc(C)c(OC)c3C)nc2c1` (stereo not drawn) [Omeprazole], in series [1], the “Drug-drug interaction? (RDV potency)” value was “No” and the “effect on RDV potency” value is listed as “minimal effect on RDV potency”. For the same compound, in the series on HeLa cells (human), the “RDV CC50 when combination” value is above 2.5 µM and the “RDV CC50 when in combination” value was above 2.5 µM. For the same compound, in [2], the Cmax is 598 [12] ng/mL.
On to `Cc1nccn1CC1CCc2c(c3ccccc3n2C)C1=O` (stereo not drawn) [Ondansetron, ondansetron hydrochloride dihydrate], for which, in series [1], the “Drug-drug interaction? (RDV potency)” value is “No” and the “effect on RDV potency” value is on record as “minimal effect on RDV potency”. Besides, in the series with HeLa cells (human), the “RDV CC50 when combination” value is recorded as above 2.5 µM and the “RDV CC50 when in combination” value was above 2.5 µM. In addition, the Cmax in [2] was 106 [13] ng/mL. The “Plasma Protein Binding” value in series [3] is recorded as 73%.
On to `[H]/N=C(\N/C(=N/[H])Nc1ccc(Cl)cc1)NC(C)C` [Proguanil, Proguanil hydrochloride], for which, in series [1], the “Drug-drug interaction? (RDV potency)” value is listed as “No” and the “effect on RDV potency” value is reported as “minimal effect on RDV potency”. Further, in the series on HeLa cells (human), the “RDV CC50 when combination” value is reported as above 2.5 µM and the “RDV CC50 when in combination” value is above 2.5 µM. Besides, in series [2], the Cmax was 918 [5] ng/mL.
Regarding `CC(C)c1nc(CN(C)C(=O)N[C@H](C(=O)N[C@@H](Cc2ccccc2)C[C@H](O)[C@H](Cc2ccccc2)NC(=O)OCc2cncs2)C(C)C)cs1` [Ritonavir], in [1], the “Drug-drug interaction? (RDV potency)” value is recorded as “No” and the “effect on RDV potency” value is “minimal effect on RDV potency”. In addition, the Cmax in series [2] is 1271 [17] ng/mL.
As for `CC(C)OC(=O)OCOP(=O)(CO[C@H](C)Cn1cnc2c(N)ncnc21)OCOC(=O)OC(C)C` [Tenofovir disoproxil fumarate], in series [1], the “Drug-drug interaction? (RDV potency)” value was “No” and the “effect on RDV potency” value is on record as “minimal effect on RDV potency”. In addition, in the series on HeLa cells (human), the “RDV CC50 when combination” value is above 2.5 µM and the “RDV CC50 when in combination” value is on record as above 2.5 µM. Moreover, the Cmax in series [2] is 300 [18, 19] ng/mL. Further, the “Plasma Protein Binding” value in [3] is recorded as below 1%.
